# Activity calls are given as the source filed them. No cut-off for these calls is given here.
# Experiments:
# [1] = system: MCF7; experiment: Upregulation of SIRT2 gene expression in human MCF7 cells at 3 uM incubated for 24 hrs by whole transcriptome analysis; format: functional, cell-based
# [2] = system: MCF7; experiment: Upregulation of SIRT5 gene expression in human MCF7 cells at 3 uM incubated for 24 hrs by whole transcriptome analysis; format: functional, cell-based
# [3] = target: T1, Histone deacetylase 7 (Homo sapiens, UniProt Q8WUI4); experiment: Inhibition of N-terminal GST-tagged human HDAC7 (518 to end residues) expressed in baculovirus-infected Sf9 cells assessed as reduction in 7-amino-4-methylcoumarin release measured every 5 mins by fluorescence based analysis
# T1 sequence (Q8WUI4 whole entry): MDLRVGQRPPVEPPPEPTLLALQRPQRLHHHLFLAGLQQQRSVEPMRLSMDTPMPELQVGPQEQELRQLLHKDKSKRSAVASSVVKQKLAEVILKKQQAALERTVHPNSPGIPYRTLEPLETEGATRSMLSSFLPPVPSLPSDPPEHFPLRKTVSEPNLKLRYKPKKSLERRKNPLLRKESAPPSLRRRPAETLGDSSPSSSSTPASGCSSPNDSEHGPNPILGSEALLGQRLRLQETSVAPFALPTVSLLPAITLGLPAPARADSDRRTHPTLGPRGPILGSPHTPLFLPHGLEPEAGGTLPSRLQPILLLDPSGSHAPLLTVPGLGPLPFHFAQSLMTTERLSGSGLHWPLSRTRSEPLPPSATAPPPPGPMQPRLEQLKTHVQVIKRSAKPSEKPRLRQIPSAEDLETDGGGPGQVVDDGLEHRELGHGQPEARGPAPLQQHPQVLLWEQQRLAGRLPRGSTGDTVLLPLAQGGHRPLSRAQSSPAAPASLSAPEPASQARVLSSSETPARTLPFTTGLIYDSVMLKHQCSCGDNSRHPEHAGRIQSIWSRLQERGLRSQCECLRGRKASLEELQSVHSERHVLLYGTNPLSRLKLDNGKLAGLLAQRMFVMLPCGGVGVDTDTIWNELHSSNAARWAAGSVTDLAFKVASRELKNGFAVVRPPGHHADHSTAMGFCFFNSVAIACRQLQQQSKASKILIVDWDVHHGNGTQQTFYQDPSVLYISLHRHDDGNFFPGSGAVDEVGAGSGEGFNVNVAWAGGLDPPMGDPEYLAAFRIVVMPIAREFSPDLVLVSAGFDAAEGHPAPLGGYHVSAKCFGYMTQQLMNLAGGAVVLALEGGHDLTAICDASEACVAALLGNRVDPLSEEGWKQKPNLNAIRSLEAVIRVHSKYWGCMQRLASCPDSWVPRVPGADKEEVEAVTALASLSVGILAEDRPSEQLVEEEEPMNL
# [4] = system: MCF7; experiment: Induction of cell cycle arrest in human MCF7 cells assessed as accumulation at G1/S phase at 1 uM incubated for 4 hrs by PI staining based flow cytometric analysis; format: functional
# [5] = system: MCF7; experiment: Upregulation of HDAC7 gene expression in human MCF7 cells at 3 uM incubated for 24 hrs by whole transcriptome analysis; format: functional, cell-based
# [6] = target: Histone deacetylase 4 (Homo sapiens, UniProt P56524); experiment: Inhibition of N-terminal GST-tagged/C-terminal His-tagged human recombinant HDAC4 (627 to 1084 residues) expressed in baculovirus-infected Sf9 cells assessed as reduction in 7-amino-4-methylcoumarin release measured every 5 mins by fluorescence based analysis
# [7] = system: MCF7; experiment: Upregulation of HDAC2 gene expression in human MCF7 cells at 3 uM incubated for 24 hrs by whole transcriptome analysis; format: functional, cell-based
# [8] = system: MCF7; experiment: Upregulation of c-REL gene expression in human MCF7 cells at 3 uM incubated for 24 hrs by whole transcriptome analysis; format: functional, cell-based
# [9] = target: Histone deacetylase 2 (Homo sapiens, UniProt Q92769); format: cell-based, Sf9
# [10] = system: MCF7; experiment: Upregulation of HDAC1 gene expression in human MCF7 cells at 3 uM incubated for 24 hrs by whole transcriptome analysis; format: functional, cell-based
# [11] = target: Histone deacetylase 9 (Homo sapiens, UniProt Q9UKV0); experiment: Inhibition of C-terminal His-tagged human HDAC9 (604 to 1066 residues) expressed in baculovirus-infected Sf9 cells assessed as reduction in 7-amino-4-methylcoumarin release measured every 5 mins by fluorescence based analysis
# [12] = system: MCF7; experiment: Upregulation of RELA (p65 ) gene expression in human MCF7 cells at 3 uM incubated for 24 hrs by whole transcriptome analysis; format: functional, cell-based
# [13] = system: MCF7; experiment: Induction of apoptosis in human MCF7 cells assessed as increase in caspase 3/7 activity at 1 to 3 uM measured after 48 hrs by ELISA; format: functional, cell-based; settings: dose 1-3 µM
# [14] = target: T2, Histone deacetylase 5 (Homo sapiens, UniProt Q9UQL6); experiment: Potency index, ratio of vorinostat IC50 to test compound IC50 for Inhibition of N-terminal GST-tagged human recombinant full length HDAC5 expressed in baculovirus-infected Sf9 cells assessed as reduction in 7-amino-4-methylcoumarin release measured every 5 mins by fluorescence based analysis
# [15] = system: MCF7; experiment: Upregulation of NFkB2 gene expression in human MCF7 cells at 3 uM incubated for 24 hrs by whole transcriptome analysis; format: functional, cell-based
# [16] = target: T2, Histone deacetylase 5; experiment: Inhibition of N-terminal GST-tagged human recombinant full length HDAC5 expressed in baculovirus-infected Sf9 cells assessed as reduction in 7-amino-4-methylcoumarin release measured every 5 mins by fluorescence based analysis
# [17] = system: MCF7; experiment: Upregulation of HDAC11 gene expression in human MCF7 cells at 3 uM incubated for 24 hrs by whole transcriptome analysis; format: functional, cell-based
# [18] = system: MCF7; experiment: Upregulation of HDAC6 gene expression in human MCF7 cells at 3 uM incubated for 24 hrs by whole transcriptome analysis; format: functional, cell-based
# [19] = system: MCF7; experiment: Induction of cell cycle arrest in human MCF7 cells assessed as accumulation at subG1 phase at 1 uM incubated for 24 to 72 hrs by PI staining based flow cytometric analysis; format: functional; settings: time 24-72 hrs
# [20] = system: MCF7; experiment: Upregulation of RELB gene expression in human MCF7 cells at 3 uM incubated for 24 hrs by whole transcriptome analysis; format: functional, cell-based
# [21] = target: Histone deacetylase 1 (Homo sapiens, UniProt Q13547); experiment: Inhibition of C-terminal FLAG/His-tagged human recombinant HDAC1 (1 to 482 residues) expressed in baculovirus-infected Sf9 cells assessed as reduction in 7-amino-4-methylcoumarin release using fluorogenic HDAC substrate 3 measured every 5 mins by fluorescence based analysis
# [22] = system: MCF7; experiment: Upregulation of HDAC8 gene expression in human MCF7 cells at 3 uM incubated for 24 hrs by whole transcriptome analysis; format: functional, cell-based
# [23] = system: MCF7; experiment: Upregulation of SIRT6 gene expression in human MCF7 cells at 3 uM incubated for 24 hrs by whole transcriptome analysis; format: functional, cell-based
# [24] = system: MCF7; experiment: Induction of cell cycle arrest in human MCF7 cells assessed as accumulation at G2/M phase at 1 uM incubated for 24 hrs by PI staining based flow cytometric analysis; format: functional
# [25] = system: MCF7; experiment: Induction of apoptosis in human MCF7 cells assessed as downregulation of c-Myc protein expression at 1 to 3 uM measured after 48 hrs western blot analysis; format: functional, cell-based; settings: dose 1-3 µM
# [26] = system: MCF7; experiment: Upregulation of SIRT3 gene expression in human MCF7 cells at 3 uM incubated for 24 hrs by whole transcriptome analysis; format: functional, cell-based
# [27] = system: MCF7; experiment: Upregulation of NFkB1 gene expression in human MCF7 cells at 3 uM incubated for 24 hrs by whole transcriptome analysis; format: functional, cell-based
# [28] = system: MCF7; experiment: Upregulation of SIRT7 gene expression in human MCF7 cells at 3 uM incubated for 24 hrs by whole transcriptome analysis; format: functional, cell-based
# [29] = system: MCF7; experiment: Upregulation of SIRT4 gene expression in human MCF7 cells at 3 uM incubated for 24 hrs by whole transcriptome analysis; format: functional, cell-based
# [30] = system: MCF7; experiment: Upregulation of SIRT1 gene expression in human MCF7 cells at 3 uM incubated for 24 hrs by whole transcriptome analysis; format: functional, cell-based
# [31] = system: MCF7; experiment: Upregulation of HDAC3 gene expression in human MCF7 cells at 3 uM incubated for 24 hrs by whole transcriptome analysis; format: functional, cell-based
# [32] = target: Histone deacetylase 3/Nuclear receptor corepressor 2 (HDAC3/NCoR2) (Homo sapiens, UniProt O15379); experiment: Inhibition of C-terminal His-tagged human recombinant full length HDAC3 (1 to 428 residues)/N-terminal GST-tagged human recombinant NCOR2 (395 to 489 residues) expressed in baculovirus-infected Sf9 cells assessed as reduction in 7-amino-4-methylcoumarin release using fluorogenic HDAC substrate 3 measured every 5 mins by fluorescence based analysis
# [33] = system: MCF7; experiment: Upregulation of HDAC4 gene expression in human MCF7 cells at 3 uM incubated for 24 hrs by whole transcriptome analysis; format: functional, cell-based
# [34] = system: MCF7; experiment: Upregulation of HDAC10 gene expression in human MCF7 cells at 3 uM incubated for 24 hrs by whole transcriptome analysis; format: functional, cell-based
# [35] = system: MCF7; experiment: Upregulation of HDAC5 gene expression in human MCF7 cells at 3 uM incubated for 24 hrs by whole transcriptome analysis; format: functional, cell-based
# T2 sequence (Q9UQL6 whole entry): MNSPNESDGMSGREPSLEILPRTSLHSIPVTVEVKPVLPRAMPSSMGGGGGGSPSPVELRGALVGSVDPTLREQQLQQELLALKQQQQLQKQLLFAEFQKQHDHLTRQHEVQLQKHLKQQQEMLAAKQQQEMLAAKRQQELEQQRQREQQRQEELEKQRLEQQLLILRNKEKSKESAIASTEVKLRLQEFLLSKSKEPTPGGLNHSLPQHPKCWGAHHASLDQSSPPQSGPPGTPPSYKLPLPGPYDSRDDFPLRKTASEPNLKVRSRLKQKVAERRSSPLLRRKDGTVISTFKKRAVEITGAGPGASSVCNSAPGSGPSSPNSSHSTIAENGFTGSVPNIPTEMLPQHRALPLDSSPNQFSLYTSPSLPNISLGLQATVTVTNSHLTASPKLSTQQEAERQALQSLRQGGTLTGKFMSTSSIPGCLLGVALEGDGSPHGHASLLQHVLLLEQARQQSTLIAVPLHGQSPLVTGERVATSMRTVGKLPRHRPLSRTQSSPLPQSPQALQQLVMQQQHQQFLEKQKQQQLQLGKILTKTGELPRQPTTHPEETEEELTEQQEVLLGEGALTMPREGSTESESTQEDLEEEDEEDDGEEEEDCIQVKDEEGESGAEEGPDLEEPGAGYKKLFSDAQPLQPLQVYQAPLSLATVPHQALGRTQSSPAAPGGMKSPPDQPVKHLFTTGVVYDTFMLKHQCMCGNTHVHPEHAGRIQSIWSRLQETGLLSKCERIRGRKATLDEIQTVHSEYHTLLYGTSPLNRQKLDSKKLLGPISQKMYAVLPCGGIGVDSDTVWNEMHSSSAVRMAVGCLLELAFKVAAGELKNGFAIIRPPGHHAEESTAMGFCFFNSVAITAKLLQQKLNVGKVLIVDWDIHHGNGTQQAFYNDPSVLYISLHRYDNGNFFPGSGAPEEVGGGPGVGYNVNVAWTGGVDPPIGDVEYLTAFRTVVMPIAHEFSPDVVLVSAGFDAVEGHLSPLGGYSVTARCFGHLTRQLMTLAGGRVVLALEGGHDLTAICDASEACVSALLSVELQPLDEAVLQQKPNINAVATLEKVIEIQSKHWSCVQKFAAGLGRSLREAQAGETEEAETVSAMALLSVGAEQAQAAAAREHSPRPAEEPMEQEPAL
# Chain of Histone deacetylase 1 (Q13547 whole entry, the tested form may be a part): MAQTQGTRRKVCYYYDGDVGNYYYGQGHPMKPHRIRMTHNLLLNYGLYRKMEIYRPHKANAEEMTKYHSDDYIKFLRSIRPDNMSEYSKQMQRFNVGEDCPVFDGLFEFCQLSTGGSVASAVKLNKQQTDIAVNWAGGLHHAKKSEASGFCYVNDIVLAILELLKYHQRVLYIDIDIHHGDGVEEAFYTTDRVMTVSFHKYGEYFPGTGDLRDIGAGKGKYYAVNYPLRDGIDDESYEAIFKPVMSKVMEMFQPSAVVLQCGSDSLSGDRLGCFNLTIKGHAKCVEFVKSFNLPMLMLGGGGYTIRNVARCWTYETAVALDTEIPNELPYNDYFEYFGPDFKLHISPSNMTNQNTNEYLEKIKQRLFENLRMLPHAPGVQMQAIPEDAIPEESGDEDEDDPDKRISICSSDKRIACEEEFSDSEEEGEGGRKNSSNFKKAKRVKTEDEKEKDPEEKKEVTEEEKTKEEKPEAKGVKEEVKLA
# Chain of Histone deacetylase 2 (Q92769 whole entry): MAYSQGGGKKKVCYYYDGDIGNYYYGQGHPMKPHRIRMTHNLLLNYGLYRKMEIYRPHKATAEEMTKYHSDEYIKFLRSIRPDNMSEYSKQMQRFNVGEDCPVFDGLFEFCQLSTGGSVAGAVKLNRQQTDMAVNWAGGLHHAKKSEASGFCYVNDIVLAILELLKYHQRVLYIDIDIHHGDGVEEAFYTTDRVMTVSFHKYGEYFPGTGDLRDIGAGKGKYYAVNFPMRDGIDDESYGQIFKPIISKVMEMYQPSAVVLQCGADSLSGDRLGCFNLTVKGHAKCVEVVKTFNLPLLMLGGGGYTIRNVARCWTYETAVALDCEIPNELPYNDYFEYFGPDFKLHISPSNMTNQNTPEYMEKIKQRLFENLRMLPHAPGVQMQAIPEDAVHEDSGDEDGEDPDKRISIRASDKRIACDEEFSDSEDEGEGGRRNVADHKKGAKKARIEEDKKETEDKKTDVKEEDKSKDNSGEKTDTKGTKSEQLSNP
# Chain of Histone deacetylase 3/Nuclear receptor corepressor 2 (HDAC3/NCoR2) (O15379 whole entry, the tested form may be a part): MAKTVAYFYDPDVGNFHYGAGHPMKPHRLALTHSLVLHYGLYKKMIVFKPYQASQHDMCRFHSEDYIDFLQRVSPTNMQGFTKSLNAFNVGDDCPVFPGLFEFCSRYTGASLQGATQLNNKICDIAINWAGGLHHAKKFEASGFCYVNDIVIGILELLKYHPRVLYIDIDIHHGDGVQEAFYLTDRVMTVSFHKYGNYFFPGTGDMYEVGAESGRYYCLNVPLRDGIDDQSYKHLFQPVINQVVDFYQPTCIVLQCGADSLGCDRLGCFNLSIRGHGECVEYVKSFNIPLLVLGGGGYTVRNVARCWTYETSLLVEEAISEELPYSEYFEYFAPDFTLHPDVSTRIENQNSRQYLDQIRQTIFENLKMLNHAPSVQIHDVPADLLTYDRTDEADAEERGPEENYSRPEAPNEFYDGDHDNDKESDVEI
# Chain of Histone deacetylase 3/Nuclear receptor corepressor 2 (HDAC3/NCoR2) (Q9Y618 whole entry, further chain, the tested form may be a part): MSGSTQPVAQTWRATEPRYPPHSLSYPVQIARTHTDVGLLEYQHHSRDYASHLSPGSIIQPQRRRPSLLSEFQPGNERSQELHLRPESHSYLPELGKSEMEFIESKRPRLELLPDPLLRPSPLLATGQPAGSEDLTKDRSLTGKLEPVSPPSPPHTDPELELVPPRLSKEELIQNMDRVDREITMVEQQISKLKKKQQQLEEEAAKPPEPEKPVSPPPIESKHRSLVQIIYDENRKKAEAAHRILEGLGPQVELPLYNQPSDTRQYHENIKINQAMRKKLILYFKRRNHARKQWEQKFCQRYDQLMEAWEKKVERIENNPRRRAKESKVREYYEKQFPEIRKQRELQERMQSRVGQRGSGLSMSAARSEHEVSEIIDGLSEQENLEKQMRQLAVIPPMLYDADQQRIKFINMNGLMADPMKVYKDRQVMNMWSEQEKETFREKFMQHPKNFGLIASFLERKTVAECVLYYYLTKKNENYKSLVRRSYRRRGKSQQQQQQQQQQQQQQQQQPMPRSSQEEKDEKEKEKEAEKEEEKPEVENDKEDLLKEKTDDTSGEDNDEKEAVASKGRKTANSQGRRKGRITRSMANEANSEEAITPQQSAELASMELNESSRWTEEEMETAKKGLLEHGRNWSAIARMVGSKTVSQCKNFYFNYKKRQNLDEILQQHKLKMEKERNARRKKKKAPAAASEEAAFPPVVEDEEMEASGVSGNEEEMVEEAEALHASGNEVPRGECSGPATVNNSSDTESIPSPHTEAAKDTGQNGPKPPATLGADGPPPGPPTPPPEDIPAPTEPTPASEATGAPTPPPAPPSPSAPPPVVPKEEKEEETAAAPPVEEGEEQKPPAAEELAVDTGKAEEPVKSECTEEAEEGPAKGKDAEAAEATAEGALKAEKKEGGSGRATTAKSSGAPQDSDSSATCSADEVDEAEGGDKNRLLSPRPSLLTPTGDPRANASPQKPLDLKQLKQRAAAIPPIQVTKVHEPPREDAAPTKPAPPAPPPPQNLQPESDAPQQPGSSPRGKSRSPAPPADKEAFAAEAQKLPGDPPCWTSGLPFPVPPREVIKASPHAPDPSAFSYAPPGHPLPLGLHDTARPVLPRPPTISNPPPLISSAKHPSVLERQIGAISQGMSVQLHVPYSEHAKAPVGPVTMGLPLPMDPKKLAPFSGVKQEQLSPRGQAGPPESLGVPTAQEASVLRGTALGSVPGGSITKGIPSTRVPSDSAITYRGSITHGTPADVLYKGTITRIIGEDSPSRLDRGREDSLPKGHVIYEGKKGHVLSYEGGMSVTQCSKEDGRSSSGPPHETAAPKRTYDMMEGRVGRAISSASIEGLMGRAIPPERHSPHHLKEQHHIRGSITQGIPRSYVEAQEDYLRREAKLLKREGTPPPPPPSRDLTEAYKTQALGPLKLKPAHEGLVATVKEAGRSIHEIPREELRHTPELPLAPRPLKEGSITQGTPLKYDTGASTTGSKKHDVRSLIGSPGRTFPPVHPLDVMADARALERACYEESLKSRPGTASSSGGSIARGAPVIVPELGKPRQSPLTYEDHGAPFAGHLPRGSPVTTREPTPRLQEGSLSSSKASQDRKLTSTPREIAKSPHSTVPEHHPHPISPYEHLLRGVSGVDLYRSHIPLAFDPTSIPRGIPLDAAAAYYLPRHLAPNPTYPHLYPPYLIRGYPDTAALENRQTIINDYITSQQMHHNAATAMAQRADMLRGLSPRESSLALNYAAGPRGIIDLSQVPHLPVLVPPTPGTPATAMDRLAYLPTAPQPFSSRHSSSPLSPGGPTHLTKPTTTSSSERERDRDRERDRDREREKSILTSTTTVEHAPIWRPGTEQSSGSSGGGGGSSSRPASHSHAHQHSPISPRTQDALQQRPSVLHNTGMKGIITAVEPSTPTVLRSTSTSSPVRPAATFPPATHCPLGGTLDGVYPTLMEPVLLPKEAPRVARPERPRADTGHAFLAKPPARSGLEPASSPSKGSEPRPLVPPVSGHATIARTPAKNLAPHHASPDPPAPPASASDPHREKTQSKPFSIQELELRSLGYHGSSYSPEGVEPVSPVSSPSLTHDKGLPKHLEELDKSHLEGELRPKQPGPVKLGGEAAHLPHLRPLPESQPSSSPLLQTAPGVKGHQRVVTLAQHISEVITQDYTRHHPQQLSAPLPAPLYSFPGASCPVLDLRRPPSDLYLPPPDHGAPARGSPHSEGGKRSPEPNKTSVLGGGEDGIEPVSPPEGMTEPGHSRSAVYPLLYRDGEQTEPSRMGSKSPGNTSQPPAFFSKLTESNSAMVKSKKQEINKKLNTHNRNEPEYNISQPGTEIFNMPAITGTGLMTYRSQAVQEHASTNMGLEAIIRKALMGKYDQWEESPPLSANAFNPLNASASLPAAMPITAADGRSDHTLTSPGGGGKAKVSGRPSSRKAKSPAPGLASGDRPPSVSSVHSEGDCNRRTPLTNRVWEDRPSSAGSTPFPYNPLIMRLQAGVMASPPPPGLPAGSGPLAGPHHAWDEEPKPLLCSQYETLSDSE
compound,measurement,setting,value
CC(C)(C)Nc1c(-c2cccc(-c3nc4cc(-c5noc(C(F)(F)F)n5)ccc4[nH]3)c2)nc2cnccn12,Activity,[1],Active
same,Activity,[2],Active
same,IC50,[3],> 10 µM
same,Activity,[4],Active
same,Activity,[5],Active
same,IC50,[6],8 µM
same,Activity,[7],Active
same,Activity,[8],Active
same,IC50,[9],> 10 µM
same,Activity,[10],Active
same,IC50,[11],> 10 µM
same,Activity,[12],Active
same,Activity,[13],Active
same,Ratio IC50,[14],> 33
same,Activity,[15],Active
same,IC50,[16],0.307 µM
same,Activity,[17],Active
same,Activity,[18],Active
same,Activity,[19],Active
same,Activity,[20],Active
same,IC50,[21],> 10 µM
same,Activity,[22],Active
same,Activity,[23],Active
same,Activity,[24],Active
same,Activity,[25],Active
same,Activity,[26],Active
same,Activity,[27],Active
same,Activity,[28],Active
same,Activity,[29],Active
same,Activity,[30],Active
same,Activity,[31],Active
same,IC50,[32],> 10 µM
same,Activity,[33],Active
same,Activity,[34],Active
same,Activity,[35],Active

# From ChEMBL document CHEMBL4811298, “Discovery of novel class of histone deacetylase inhibitors as potential anticancer agents” (Bioorg Med Chem, 2021)
